Experimental data taken from US20250296942A1, “Phosphonate-Based Coordination Complexes and Methods of Preparation and Use Thereof” (University of Puerto Rico, priority 2021, published 2025).
Where “and” joins values, the source holds several entries; their conditions need not be identical. Identical values can stand only once.

Experiments:
[1] = Hydroxyapatite (HA) binding assay of RISE and nano-Ca@RISE
Experimental: Hydroxyapatite (HA) binding assay. For the binding assay of nano-Ca@RISE, 20 mg of hydroxyapatite (HA) were exposed to 3 mL of a nano-Ca@RISE in PBS solution (0.5 mg/mL), for 0-11 days at 37° C. As control groups, RISE and HA, both in PBS, were employed. Samples were collected each day from 11 consecutive days. After each time point, the supernatant was collected and centrifuged (1,500 rpm, 8 min). […]
The capacity of nano-Ca@RISE to bind to the main constituent of the bone microenvironment, HA, under simulated physiological conditions, was evaluated through a binding assay. […]. […] […]. Therefore, a calibration curve of nano-Ca@RISE in PBS was employed for quantification of the nanocrystal's concentration in the supernatant after the binding assay.
For the nano-Ca@RISE binding assay, 20 mg of hydroxyapatite (HA), were added to 3.00 mL of nano-Ca@RISE (0.5 mg/mL) in PBS solution. HA in PBS mixture, and the binding of RISE to HA, were used as control groups. The samples were left for 0-11 days at 37° C. and 300 rpm. As a comparative method, additional binding assay for RISE “as received” was conducted employing the same parameters as for the nanocrystals. The selected time points were: 1, 2, 3, 4, 5, 7, 8, 9, 10, and 11 days. The supernatant was collected after each time point, then centrifuged (1,500 rpm, 8 min), and absorbance measurements were performed at 206 nm to determine the binding percentage of RISE from the nano-Ca@RISE to HA. FIGS. S8.6.1 and S8.6.2 illustrate the binding curves of RISE and nano-Ca@RISE to HA in PBS.

[2] = tested on: human breast cancer MDA-MB-231 cell line; experiment: AlamarBlue cytotoxicity, 2,2′-BPBPA series, MDA-MB-231; assay type: cell-based; conditions: 24, 48, 72 h
Experimental: Cell culture methods. MCF-7 and MDA-MB-231 were incubated using DMEM at 37° C. in 5% CO2. The hFOB 1.19 cell lines were incubated with DMEM: F12 at 34° C. in 5% CO2.
Cell lines were supplemented using 10% FBS and 1% Pen-Strep. The media was replaced twice per week. Cell passages were carried out at 80% confluency.
Cell-based assays. Cell lines were seeded in 96 well plates at a density of 5x 10^3 cells/mL and incubated for 24 h before treatment. Cells were treated with 100 μL of 2,2′-BPBPA (0-400 μM), unloaded and loaded nano-Ca@2,2′-BPBPA (6.3-50 μM) for 24, 48, and 72 h.
Control groups were treated with media (DMEM or DMEM: F12) supplemented with 1% Pen-Strep. Cell viability was determined by employing AlamarBLue@. The media was replaced with 100 μL of 10% AlamarBlue® solution. After 24 h of incubation, the fluorescence was assessed at )max of 560 nm for excitation and 590 nm for emission.
Cell culture methods. MCF-7 and MDA-MB-231 were incubated using DMEM at 37° C. in 5% CO2. The hFOB 1.19 cell lines were incubated with DMEM: F12 at 34° C. in 5% CO2. Cell lines were supplemented using 10% FBS and 1% Pen-Strep. The media was replaced twice times per week. Cell passages were carried out at 80% confluency.
Seeding. […]
AlamarBlue@assay. […] Then, the fluorescence was assessed at 560 nm of excitation and λmax 590 nm of emission. […]

Compound | time to reach maximum binding to HA ([1]; PBS) [days] | maximum binding to HA ([1]; PBS pH 7.40, 37 °C, 0-11 days) [%] | bound to HA ([1]; PBS pH 7.40, 37 °C, 1 day) | IC50 [2] [µM]
O=P(O)(O)C(O)(Cc1cccnc1)P(=O)(O)O [RISE, Monosodium risedronate hemipentahydrate] | 8 | 76 | 18% and 17% | 
O=P(O)(O)c1ccc(-c2ccc(P(=O)(O)O)cn2)nc1 [2,2′-BPBPA, 2,2′-bipyridine-5,5′-bisphosphonic acid] |  |  |  | > 200
